Some results are limits rather than exact numbers.

The subject of data set [1] is HUVEC. In words: Antiinflammatory activity in HUVEC assessed as inhibition of LPS-induced ICAM1 expression by cell-ELISA. The format is functional, cell-based. As to conditions: Homo sapiens. (An ELISA detects its analyte on a solid surface through an enzyme-linked reagent.)
The test system of data set [2] is HUVEC. Kind of data set: Antiinflammatory activity in HUVEC assessed as inhibition of TNFalpha-induced ICAM1 expression at 100 uM pretreated for 2 hrs followed by TNFalpha challenge measured after 16 hrs by cell-ELISA. It is filed as functional. The note with it: Homo sapiens.
The subject of data set [3] is HUVEC. Kind of data set: Antiinflammatory activity in HUVEC assessed as inhibition of TNFalpha-induced ICAM1 expression pretreated for 2 hrs followed by TNFalpha challenge measured after 16 hrs by cell-ELISA. As to conditions: Homo sapiens. It is filed as functional, cell-based.
Data set [4] in a line: Cytotoxicity against HUVEC assessed as cell viability at 100 uM after 24 hrs by MTT assay. It is filed as cell-based. As to conditions: human, HUVEC cells; read-out: Activity. In general terms: Formazan colour is commonly taken as a measure of viable cells.
Data set [5] has as its system HUVEC. In words: Antiinflammatory activity in HUVEC assessed as inhibition of TNFalpha-induced ICAM1 expression preincubated for 0.5 to 6 hrs followed by TNFalpha challenge measured after 4 hrs by immunostaining assay. The format is functional, cell-based. The note with it: Homo sapiens.
The subject of data set [6] is HUVEC. In words: Antiinflammatory activity in HUVEC assessed as inhibition of TNFalpha-induced ICAM1 expression measured after 6 hrs by FACS flow cytometry. As to conditions: Homo sapiens. The format is functional, cell-based. Background: Flow cytometry measures light scatter and fluorescence of single cells or particles in a stream.
Data set [7] relates to HUVEC. In words: Antiinflammatory activity in HUVEC assessed as inhibition of TNFalpha-induced ICAM1 expression at 100 uM pre-treated before TNFalpha addition by cell-ELISA. It is filed as functional, cell-based. As to conditions: Homo sapiens, TDE = time-dependent effect.

In general, IC50 refers to the midpoint of a concentration-inhibition curve. As for `O=C(O)Cc1ccccc1Nc1c(Cl)cccc1Cl` [DICLOFENAC], the IC50 with HUVEC [1] stood at 750 µM.

Usually inhibition stands for the share of the control response that was lost under treatment. Regarding `CCOC(=O)/C=C1/C(=O)Nc2ccc(F)cc21`, the inhibition at 100 µM with HUVEC [2] amounted to 31%. In addition, the IC50 in the data set with HUVEC [3] was over 100 µM. In data set [4], the viability at 24 h, 100 µM turned out to be 95%.

With `CC(=O)N[C@@H](CS)C(=O)O` [ACETYLCYSTEINE], the IC50 in the data set with HUVEC [5] came to 10000 µM.

As to `CCOC(=O)/C=C1/C(=O)N(CC(=O)OCC)c2ccc(F)cc21`, in the data set with HUVEC [2], the inhibition at 100 µM stood at 63%. Moreover, in the data set on HUVEC [3], the IC50 is 40 µM. Besides, the viability at 24 h, 100 µM in data set [4] stood at 97%.

For the compound `CCOC(=O)/C=C1/C(=O)N(C(=O)OC)c2ccccc21`, the inhibition at 100 µM in the data set with HUVEC [2] was 57%. Further, the IC50 in the data set on HUVEC [3] was 78 µM. Further, the viability at 24 h, 100 µM in data set [4] amounted to 98%.

On to `CCOC(=O)/C=C1/C(=O)N(C(=O)OC)c2ccc(Br)cc21`, for which, in the data set with HUVEC [2], the inhibition at 100 µM turned out to be 88%. For the same compound, the IC50 in the data set on HUVEC [3] came to 25 µM. For the same compound, the viability at 24 h, 100 µM in data set [4] was found to be 98%.

As to `CCOC(=O)/C=C1/C(=O)N(CC(=O)OCC)c2ccccc21`, the inhibition at 100 µM in the data set with HUVEC [2] came out at 74%. Moreover, the IC50 with HUVEC [3] came out at 55 µM. Besides, the viability at 24 h, 100 µM in data set [4] stood at 98%.

As for `CCOC(=O)/C=C1/C(=O)N(CC(=O)OC)c2ccc(Br)cc21`, the inhibition at 100 µM in the data set with HUVEC [2] was 81%. In addition, the IC50 with HUVEC [3] was determined as 25 µM. Further, the viability at 24 h, 100 µM in data set [4] is 99%.

With `CCOC(=O)/C=C1/C(=O)N(CC(=O)OC)c2ccc(F)cc21`, in the data set on HUVEC [2], the inhibition at 100 µM is 52%. Besides, the IC50 in the data set on HUVEC [3] is 75 µM. In addition, in data set [4], the viability at 24 h, 100 µM was found to be 96%.

`CCOC(=O)/C=C1/C(=O)N(C(=O)OCC)c2ccc(Br)cc21`: the inhibition at 100 µM in the data set with HUVEC [2] was 91%. In addition, in the data set with HUVEC [3], the IC50 came to 15 µM. Further, the viability at 24 h, 100 µM in data set [4] was found to be 98%.

As to `CCOC(=O)/C=C1/C(=O)N(C(=O)OCC)c2ccccc21`, the inhibition at 100 µM in the data set on HUVEC [2] was 66%. Further, the IC50 with HUVEC [3] worked out at 50 µM. Further, in data set [4], the viability at 24 h, 100 µM was found to be 95%.

Take `CCOC(=O)/C=C1/C(=O)N(CC(=O)OCC)c2ccc(Cl)cc21`: the inhibition at 100 µM in the data set on HUVEC [2] came out at 74%. In the data set with HUVEC [3], the IC50 was 25 µM. Further, the viability at 24 h, 100 µM in data set [4] amounted to 96%.

Take `CCOC(=O)/C=C1/C(=O)Nc2ccccc21`: the inhibition at 100 µM with HUVEC [2] was 40%. In the data set with HUVEC [3], the IC50 is over 100 µM. For the same compound, in data set [4], the viability at 24 h, 100 µM stood at 96%.

`CC(=O)Oc1ccccc1C(=O)O` [ASPIRIN]: the IC50 with HUVEC [6] worked out at 5000 µM.

For `CCOC(=O)/C=C1/C(=O)Nc2ccc(Cl)cc21`, the inhibition at 100 µM in the data set with HUVEC [2] came to 56%. Besides, the IC50 in the data set on HUVEC [3] amounted to 100 µM. Moreover, the viability at 24 h, 100 µM in data set [4] is 96%.

`CCOC(=O)/C=C1/C(=O)Nc2ccc(Br)cc21`: the inhibition at 100 µM in the data set with HUVEC [2] turned out to be 58%. In addition, the IC50 in the data set on HUVEC [3] was 100 µM. Moreover, the viability at 24 h, 100 µM in data set [4] was found to be 97%.

With `CCOC(=O)/C=C1/C(=O)N(C(=O)OCC)c2ccc(F)cc21`, the inhibition at 100 µM in the data set with HUVEC [2] is 72%. The IC50 with HUVEC [3] was determined as 53 µM. For the same compound, the viability at 24 h, 100 µM in data set [4] is 96%.

`CCOC(=O)/C=C1/C(=O)N(C(=O)OC)c2ccc(Cl)cc21`: in the data set on HUVEC [2], the inhibition at 100 µM came out at 77%. In addition, the IC50 with HUVEC [3] was 40 µM. Moreover, in data set [4], the viability at 24 h, 100 µM stood at 96%.

Turning to `CCOC(=O)/C=C1/C(=O)N(C(=O)OC)c2ccc(F)cc21`, the inhibition at 100 µM in the data set with HUVEC [2] came to 61%. The IC50 in the data set with HUVEC [3] came out at 70 µM. Further, the viability at 24 h, 100 µM in data set [4] worked out at 97%.

Take `CCOC(=O)/C=C1/C(=O)N(CC(=O)OCC)c2ccc(Br)cc21`: the inhibition result with HUVEC [7] was “tde”. In the data set with HUVEC [2], the inhibition entry is “Dose-dependent effect” and the inhibition at 100 µM was 93%. Besides, the IC50 with HUVEC [3] worked out at 10 µM. Moreover, in data set [4], the viability at 24 h, 100 µM amounted to 97%.

With `CCOC(=O)/C=C1/C(=O)N(C(=O)OCC)c2ccc(Cl)cc21`, the inhibition at 100 µM in the data set with HUVEC [2] was found to be 83%. In addition, in the data set on HUVEC [3], the IC50 worked out at 30 µM. Besides, the viability at 24 h, 100 µM in data set [4] stood at 97%.

Regarding `CCOC(=O)/C=C1/C(=O)N(CC(=O)OC)c2ccccc21`, the inhibition at 100 µM in the data set with HUVEC [2] was 58%. Moreover, the IC50 with HUVEC [3] turned out to be 70 µM. Moreover, the viability at 24 h, 100 µM in data set [4] came out at 97%.

In the case of `CCOC(=O)/C=C1/C(=O)N(CC(=O)OC)c2ccc(Cl)cc21`, in the data set with HUVEC [2], the inhibition at 100 µM was found to be 67%. In the data set with HUVEC [3], the IC50 stood at 40 µM. In addition, in data set [4], the viability at 24 h, 100 µM stood at 97%.

The values above are taken from ChEMBL document CHEMBL3217543, “Synthesis and biological activity evaluation of N-protected isatin derivatives as inhibitors of ICAM-1 expression on human endothelial cells” (Medchemcomm, 2011).
